The structures appear in SMILES notation. ± gives the standard deviation of the averaged measurements.

The experiment relates to HeLa. In words: cell viability (CellTiter-Glo) relative to median of lowest-dilution wells of all drugs (fraction); higher = more viable cells. How it is done:
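HeLa control and CRISPR DDX11 knockout cells were seeded in 384-well plates and incubated for 72 h with each of 64 […] drugs at six concentrations. Viability was read with CellTiter-Glo and normalised to the median of the lowest (6th) dilution wells of all drugs. Two biological replicates (BR1, BR2) are averaged; the concentration unit is not stated.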
(ATP-based viability assays read luminescence as a measure of living cells.)

[1] abbreviates: drug concentration (unit not stated): 0.01, genotype: DDX11 knockout.
[2] abbreviates: drug concentration (unit not stated): 0.01, genotype: control (DDX11 wild type).
[3] abbreviates: drug concentration (unit not stated): 0.04, genotype: DDX11 knockout.
The mark [4] stands for this setting: drug concentration (unit not stated): 0.04, genotype: control (DDX11 wild type).
The mark [5] stands for this setting: drug concentration (unit not stated): 0.12, genotype: DDX11 knockout.
[6] abbreviates: drug concentration (unit not stated): 0.12, genotype: control (DDX11 wild type).
Where [7] appears, read: drug concentration (unit not stated): 0.37, genotype: DDX11 knockout.
Where [8] appears, read: drug concentration (unit not stated): 0.37, genotype: control (DDX11 wild type).
Where [9] appears, read: drug concentration (unit not stated): 1.11, genotype: DDX11 knockout.
Where [10] appears, read: drug concentration (unit not stated): 1.11, genotype: control (DDX11 wild type).

Consider `O=C(CCCCCCC(=O)Nc1ccccc1)NO` [Vorinostat (SAHA)], for which the cell viability came out at 1.01 ± 0.075 under setting [1]; 1.03 ± 0.026 under setting [2]; 0.974 ± 0.013 under setting [3]; 0.9673 ± 0.0094 under setting [4]; 0.995 ± 0.052 under setting [5]; 0.971 ± 0.031 under setting [6]. Further, the cell viability under setting [7] amounted to 0.771 ± 0.18, the cell viability under setting [8] was 0.825 ± 0.27, the cell viability under setting [9] came to 0.317 ± 0.41 and the cell viability under setting [10] stood at 0.44 ± 0.58.

Turning to `COCC[n+]1c2c(n(Cc3cnccn3)c1C)C(=O)c1ccccc1C2=O` [YM155 (Sepantronium bromide)], the cell viability reads like this: under setting [1], 0.0145 ± 0.002; under setting [2], 0.015 ± 0.0031; under setting [3], 0.0143 ± 0.0008; under setting [4], 0.0164 ± 0.0034; under setting [5], 0.0146 ± 0.00021; under setting [6], 0.0177 ± 0.0016. The cell viability was 0.0135 ± 0.00019 under setting [7], 0.0166 ± 0.0028 under setting [8], 0.0136 ± 0.00081 under setting [9] and 0.0158 ± 0.0023 under setting [10].

The record behind these values is the supplement of paper PMC8092582.
